{"source": "patent US20160213673A1", "about": "“ENDURANCE FORMULATION AND USE” (priority 2015, published 2016)", "origin": "cited, not measured here", "key": {"TRVP-1": {"molecular_target": "TRVP-1 (Homo sapiens, UniProt Q8NER1)", "sequence (Q8NER1 whole entry)": "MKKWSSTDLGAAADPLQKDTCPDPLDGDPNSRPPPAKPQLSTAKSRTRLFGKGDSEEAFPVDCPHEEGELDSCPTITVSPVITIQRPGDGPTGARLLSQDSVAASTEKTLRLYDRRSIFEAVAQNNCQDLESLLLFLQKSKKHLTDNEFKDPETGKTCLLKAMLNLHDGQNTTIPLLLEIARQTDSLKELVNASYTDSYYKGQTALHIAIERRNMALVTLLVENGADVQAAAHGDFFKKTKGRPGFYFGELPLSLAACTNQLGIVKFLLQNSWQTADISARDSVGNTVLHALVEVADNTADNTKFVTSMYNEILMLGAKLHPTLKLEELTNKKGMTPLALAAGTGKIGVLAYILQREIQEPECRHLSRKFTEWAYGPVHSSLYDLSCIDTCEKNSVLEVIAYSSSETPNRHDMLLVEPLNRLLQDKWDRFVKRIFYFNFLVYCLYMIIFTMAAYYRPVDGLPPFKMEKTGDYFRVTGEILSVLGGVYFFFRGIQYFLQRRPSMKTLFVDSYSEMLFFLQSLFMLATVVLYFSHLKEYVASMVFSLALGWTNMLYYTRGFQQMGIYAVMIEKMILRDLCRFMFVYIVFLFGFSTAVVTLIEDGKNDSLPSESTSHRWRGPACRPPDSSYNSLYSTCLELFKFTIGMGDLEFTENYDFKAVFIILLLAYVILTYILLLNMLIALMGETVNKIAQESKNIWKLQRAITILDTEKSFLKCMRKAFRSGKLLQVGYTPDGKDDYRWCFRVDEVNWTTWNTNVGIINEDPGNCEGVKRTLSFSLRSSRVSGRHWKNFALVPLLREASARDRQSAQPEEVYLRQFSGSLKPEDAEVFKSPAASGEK"}, "[1]": {"assay": "not given", "remark": "listed apart in the source"}, "[2]": {"system": "UCP3 mRNA expression in skeletal muscle", "details": "occurred within minutes of capsinoid ingestion"}, "[3]": {"details": "exhausted rats"}, "[4]": {"details": "following 4 mg/kg caffeine consumption"}, "[5]": {"details": "during the first 15 minutes of exercise"}, "[6]": {"details": "3 mg of 9 mg of dihydrocapsiate per day for 28 days"}, "[7]": {"details": "following capsiate administration"}}, "data": [{"smiles": "COc1cc(COC(=O)CCCC/C=C/C(C)C)ccc1O", "note": "[capsiate]", "values": [{"measurement": "ATP cost of twitch force generation", "setting": "mouse, in vivo", "result": "reduced"}, {"measurement": "twitch force-generating capacity", "setting": "mouse, in vivo", "result": "increased"}, {"measurement": "oxidative phosphorylation during rest", "setting": "rest", "result": "not affected"}, {"measurement": "contribution of oxidative phosphorylation to total energy turnover", "setting": "when exercising", "result": "increased"}, {"measurement": "glycolysis", "setting": "when exercising", "result": "reduction"}, {"measurement": "rates of TRVP-1 activation, capsiate compared with dihydrocapsiate", "setting": "TRVP-1", "result": "similar"}, {"measurement": "residual glycogen in the gastrocnemius muscle", "setting": "[1]; after 30 min of swimming", "result": "higher"}, {"measurement": "serum free fatty acid concentration", "setting": "[1]; after 30 min of swimming", "result": "tended to be higher"}, {"measurement": "serum lactic acid concentration", "setting": "[1]; after 30 min of swimming", "result": "significantly lower"}, {"measurement": "carbohydrate oxidation", "setting": "[1]; [7]", "result": "reduced"}, {"measurement": "fat oxidation", "setting": "[1]; [7]", "result": "significantly higher"}, {"measurement": "oxygen consumption (aerobic)", "setting": "[1]; [7]", "result": "significantly higher"}, {"measurement": "swimming time versus mice without capsiate", "setting": "[1]; mice", "result": "significantly longer"}, {"measurement": "persistence of UCP3 mRNA expression in skeletal muscle", "setting": "[2]", "result": 2, "unit": "h"}]}, {"smiles": "N=C(N)NCCC[C@H](N)C(=O)O", "note": "[arginine]", "values": [{"measurement": "ammonia toxicity", "setting": "[3]", "result": "mitigate ammonia toxicity"}]}, {"smiles": "Cn1c(=O)c2c(ncn2C)n(C)c1=O", "note": "[caffeine]", "values": [{"measurement": "plasma free fatty acids", "setting": "[4]", "result": "greater increase"}, {"measurement": "respiratory quotient (RQ)", "setting": "[4]", "result": "significantly lower"}, {"measurement": "decrease of glycogen utilization", "setting": "[5]", "result": "≤ 50", "unit": "%"}, {"measurement": "arginase activity", "setting": "arginase", "result": "inhibits arginase activity"}]}, {"smiles": "NC(=O)NCCC[C@H](N)C(=O)O", "note": "[citrulline]", "values": [{"measurement": "ammonia toxicity", "setting": "[3]", "result": "mitigate ammonia toxicity"}]}, {"smiles": "COc1cc(COC(=O)CCCCCCC(C)C)ccc1O", "note": "[dihydrocapsiate]", "values": [{"measurement": "rates of TRVP-1 activation, capsiate compared with dihydrocapsiate", "setting": "TRVP-1", "result": "similar"}, {"measurement": "post prandial energy expenditure", "setting": "[6]", "result": "significant increase"}, {"measurement": "respiratory quotient (RQ) versus placebo group", "setting": "[6]", "result": "significantly lower"}]}]}
